Article PMC6382696, “Drug Repurposing: The Anthelmintics Niclosamide and Nitazoxanide Are Potent TMEM16A Antagonists That Fully Bronchodilate Airways” (Frontiers in Pharmacology, 2019)

Experiments:
mouse tracheal rings = experiment: β-agonist use-dependent desensitization of mouse tracheal rings; settings: add-on after isoproterenol round 2
Text: Standard procedures were used to prepare and mount tissues.

[1] = system: primary human airway smooth muscle cells; experiment: Methacholine-induced depolarization of primary human airway smooth muscle cells; format: cell-based; settings: donor 199524, 20 M methacholine (so in the source), read-out: EC50 inhibition of methacholine-induced depolarization (converted)
Method: Cultured human bronchial smooth muscle cells (BSMC) from Lonza were resuspended in Smooth Muscle Growth Medium-2 (SmGM-2; Lonza) at a concentration of 4 × 10^5 cells per ml. One hundred microliters of cells per well were plated in a black wall clear bottom polystyrene 96-well tissue culture plate and incubated in a 37°C humidified incubator with 5% CO2 overnight. Cells were serum starved by removing the SmGM-2 and replaced with one hundred microliters per well of Smooth Muscle Cell Basal Medium 2 (SmBM-2), phenol red-free (PromoCell), and incubated in a 37°C humidified incubator with 5% CO2 for 24 h. SmBM-2 was replaced with 100 microliters of fresh SmBM-2. […] Using the FLIPR-Tetra (Molecular Devices), three measurements of the baseline fluorescence were taken over the span of 1 min. […] Fifty-five fluorescence measurements were taken over the span of 14 min. The area under the curve (AUC) from the fluorescence kinetic traces (normalized to baseline fluorescence) were calculated. The amount of fluorescence in the presence of compound compared with that in the presence of DMSO vehicle alone (HI control) was calculated using the formula: % control (POC) = (compd – average LO)/(average HI – average LO)^∗100. […]
Panels (B-D) show raw fluorescence data from the membrane potential assay of buffer alone (dashed line), buffer plus 20 µM methacholine […]
RFU = relative fluorescence units. […]

HT29 = system: HT29; set-up: method as in Li et al., 2014; settings: ref Li et al., 2014, read-out: IC50 inhibition of proliferation; cited from earlier work

For `COc1cc([N+](=O)[O-])ccc1NC(=O)c1cc(Cl)c2ccccc2c1O` [Cpd 4], which “% relaxation after add-on to desensitized ring” value (mouse tracheal rings; EC50 carbachol) is on record?
Its value is 98.9%.

And the “% relaxation after add-on to desensitized ring” value (mouse tracheal rings; EC75 carbachol)?
The value was 95.4%.

Which EC50 [1] does the source give for `Oc1ccc(Cl)cc1Cc1cc(Cl)ccc1O` [Dichlorophen] here?
Its EC50 is 3.7 µM.

For `O=C(Nc1ccc([N+](=O)[O-])cc1Cl)c1cc(Cl)ccc1O` [Niclosamide], which IC50 (HT29) is on record?
Its IC50 is 4.17 µM.
